We go through 38 molecules from US7495018B2, “Substituted 1,3-thiazole compounds, their production and use” (Takeda Pharmaceutical Company Limited, priority 2000, dated 2009).

As usually defined, the melting point is the temperature of the solid-liquid transition.

`CCc1nc(-c2cccc(C)c2)c(-c2ccnc(NC(=O)CC3CCCC3)c2)s1` [Example 89, N-[4-[2-ethyl-4-(3-methylphenyl)-1,3-thiazol-5-yl]-2-pyridyl]cyclopentylacetamide] came in with a melting point of 85 to 86 °C.

With `CCc1nc(-c2cccc(Cl)c2)c(-c2ccnc(NC(=O)CC3CCCC3)c2)s1` [Example 90-1, N-[4-[4-(3-chlorophenyl)-2-ethyl-1,3-thiazol-5-yl]-2-pyridyl]cyclopentylacetamide], the melting point was in the range of 121 to 122 °C.

Molecule `CCc1nc(-c2ccc(Cl)cc2)c(-c2ccnc(NC(=O)CC3CCCC3)c2)s1` [Example 90-2, N-[4-[4-(4-chlorophenyl)-2-ethyl-1,3-thiazol-5-yl]-2-pyridyl]cyclopentylacetamide] came in with a melting point of 149 to 150 °C.

For `CC(=O)Nc1cc(-c2sc(C3CCN(C(C)=O)CC3)nc2-c2cccc(Cl)c2)ccn1` [Example 93, N-[4-[2-(1-acetylpiperidin-4-yl)-4-(3-chlorophenyl)-1,3-thiazol-5-yl]-2-pyridyl]acetamide], the melting point was 160 to 161 °C.

`CCC(=O)Nc1cc(-c2sc(C3CCN(C(C)=O)CC3)nc2-c2cccc(Cl)c2)ccn1` [Example 94, N-[4-[2-(1-acetylpiperidin-4-yl)-4-(3-chlorophenyl)-1,3-thiazol-5-yl]-2-pyridyl]propionamide] displayed a melting point of 174 to 175 °C.

`CC(=O)Nc1cc(-c2sc(-c3ccc(S(C)(=O)=O)cc3)nc2-c2cccc(C)c2)ccn1` [Example 98-1, N-[4-[4-(3-methylphenyl)-2-(4-methylsulfonylphenyl)-1,3-thiazol-5-yl]-2-pyridyl]acetamide] registered a melting point of 222 to 223 °C.

`CCC(=O)Nc1cc(-c2sc(-c3ccc(S(C)(=O)=O)cc3)nc2-c2cccc(C)c2)ccn1` [Example 98-2, N-[4-[4-(3-methylphenyl)-2-(4-methylsulfonylphenyl)-1,3-thiazol-5-yl]-2-pyridyl]propionamide] had a melting point of 238 to 239 °C.

`CSCCc1nc(-c2cccc(C)c2)c(-c2ccnc(N)c2)s1` [Example 99-1, 4-[4-(3-methylphenyl)-2-[2-(methylthio)ethyl]-1,3-thiazol-5-yl]-2-pyridylamine] registered a melting point of 98 to 99 °C.

Consider `Cc1cccc(-c2nc(C(C)OC(=O)c3ccccc3)sc2-c2ccnc(N)c2)c1` (centres unmarked) [Example 99-2, 1-[5-(2-amino-4-pyridyl)-4-(3-methylphenyl)-1,3thiazol-2-yl]ethyl benzoate], for which the melting point lay in the range of 89 to 91 °C.

Regarding `CCC(=O)Nc1cc(-c2sc(CCSC)nc2-c2cccc(C)c2)ccn1` [Example 102-1, N-[4-[4-(3-methylphenyl)-2-[2-(methylthio)ethyl]-1,3-thiazol-5-yl]-2-pyridyl]propionamide], the melting point was in the range of 85 to 86 °C.

Regarding `CCC(=O)Nc1cc(-c2sc(CCSC)nc2-c2cccc(Cl)c2)ccn1` [Example 102-2, N-[4-[4-(3-chlorophenyl)-2-[2-(methylthio)ethyl]-1,3-thiazol-5-yl]-2-pyridyl]propionamide], the melting point was 91 to 92 °C.

Consider `CCC(=O)Nc1cc(-c2sc(CSC)nc2-c2cccc(Cl)c2)ccn1` [Example 102-3, N-[4-[4-(3-chlorophenyl)-2-(methylthio)methyl-1,3-thiazol-5-yl]-2-pyridyl]propionamide], for which the melting point is 118 to 119 °C.

In the case of `CCC(=O)Nc1cc(-c2sc(C(C)(F)F)nc2-c2cccc(Cl)c2)ccn1` [Example 102-4, N-[4-[4-(3-chlorophenyl)-2-(1,1-difluoroethyl)-1,3-thiazol-5-yl]-2-pyridyl]propionamide], the melting point lay in the range of 141 to 142 °C.

`CCC(=O)Nc1cc(-c2sc(C(C)OC(=O)c3ccccc3)nc2-c2cccc(C)c2)ccn1` (centres unmarked) [Example 102-5, 1-[4-(3-methylphenyl)-5-(2-propionylamino-4-pyridyl)-1,3-thiazol-2-yl]ethyl benzoate] had a melting point of 102 to 103 °C.

For the molecule `CCC(=O)Nc1cc(-c2sc(C(C)OC(=O)c3ccccc3)nc2-c2cccc(Cl)c2)ccn1` (centres unmarked) [Example 102-6, 1-[4-(3-chlorophenyl)-5-(2-propionylamino-4-pyridyl)-1,3-thiazol-2-yl]ethyl benzoate], the melting point lay within 124 to 127 °C.

Take `CC(=O)Nc1cc(-c2sc(C(C)OC(=O)c3ccccc3)nc2-c2cccc(Cl)c2)ccn1` (centres unmarked) [Example 103-1, 1-[5-(2-acetylamino-4-pyridyl)-4-(3-chlorophenyl)-1,3-thiazol-2-yl]ethyl benzoate]: the melting point is 152 to 154 °C.

Molecule `CCOC(=O)Cc1nc(-c2cccc(Cl)c2)c(-c2ccnc(NC(C)=O)c2)s1` [Example 103-2, ethyl [5-(2-acetylamino-4-pyridyl)-4-(3-chlorophenyl)-1,3-thiazol-2-yl]acetate] returned a melting point of 99 to 100 °C.

As to `CCC(=O)Nc1cc(-c2sc(C(C)O)nc2-c2cccc(Cl)c2)ccn1` (centres unmarked) [Example 105, N-[4-[4-(3-chlorophenyl)-2-(1-hydroxyethyl)-1,3-thiazol-5-yl]-2-pyridyl]propionamide], the melting point was in the range of 131 to 132 °C.

In turn, `CCC(=O)Nc1cc(-c2sc(C(C)=O)nc2-c2cccc(Cl)c2)ccn1` [Example 107, N-[4-[2-acetyl-4-(3-chlorophenyl)-1,3-thiazol-5-yl]-2-pyridyl]propionamide] came in with a melting point of 115 to 117 °C.

As for `CCNC(=O)Nc1cc(-c2sc(CC)nc2-c2cccc(C)c2)ccn1` [Example 108, N-ethyl-N′-[4-[2-ethyl-4-(3-methylphenyl)-1,3-thiazol-5-yl]-2-pyridyl]urea], the melting point lay within 177 to 180 °C.

`CC(=O)Nc1cc(-c2sc(C(C)OC(=O)c3ccccc3)nc2-c2cccc(C)c2)ccn1` (centres unmarked) [Example 110, 1-[5-(2-acetylamino-4-pyridyl)-4-(3-methylphenyl)-1,3-thiazol-2-yl]ethyl benzoate] yielded a melting point of 110 to 113 °C.

`CC(=O)Nc1cc(-c2sc(C(C)O)nc2-c2cccc(C)c2)ccn1` (centres unmarked) [Example 111-1, N-[4-[2-(1-hydroxyethyl)-4-(3-methylphenyl)-1,3-thiazol-5-yl]-2-pyridyl]acetamide] yielded a melting point of 99 to 102 °C.

For `CC(=O)Nc1cc(-c2sc(C(C)O)nc2-c2cccc(Cl)c2)ccn1` (centres unmarked) [Example 111-2, N-[4-[4-(3-chlorophenyl)-2-(1-hydroxyethyl)-1,3-thiazol-5-yl]-2-pyridyl]acetamide], the melting point was 142 to 145 °C.

Take `CC(=O)Nc1cc(-c2sc(C(C)=O)nc2-c2cccc(Cl)c2)ccn1` [Example 112, N-[4-[2-acetyl-4-(3-chlorophenyl)-1,3-thiazol-5-yl]-2-pyridyl]acetamide]: the melting point lay within 180 to 183 °C.

`CSCc1nc(-c2cccc(C)c2)c(-c2ccnc(N)c2)s1` [Example 113-1, 4-[4-(3-methylphenyl)-2-(methylthio)methyl-1,3-thiazol-5-yl]-2-pyridylamine]: the melting point was in the range of 113 to 114 °C.

In turn, `Cc1cccc(-c2nc(C(C)(F)F)sc2-c2ccnc(N)c2)c1` [Example 113-2, 4-[2-(1,1-difluoroethyl)-4-(3-methylphenyl)-1,3-thiazol-5-yl]-2-pyridylamine] came in with a melting point of 140 to 141 °C.

The molecule `COc1cccc(-c2nc(N)sc2-c2ccnc(F)c2)c1` [Example Compound 7-1, [5-(2-fluoro-4-pyridyl)-4-(3-methoxyphenyl)-1,3-thiazol-2-yl]amine] had a melting point of 190 to 191 °C.

In turn, `Nc1nc(-c2ccc(F)cc2)c(-c2ccnc(F)c2)s1` [Example Compound 7-3, [4-(4-fluorophenyl)-5-(2-fluoro-4-pyridyl)-1,3-thiazol-2-yl]amine] registered a melting point of 243 to 245 °C.

Turning to `Cc1cccc(-c2nc(N)sc2-c2ccnc(C)c2)c1` [Example Compound 7-4, [4-(3-methylphenyl)-5-(2-methyl-4-pyridyl)-1,3-thiazol-2-yl]amine], the melting point was 205 to 206 °C.

Take `Cc1cc(C)cc(-c2nc(N)sc2-c2ccnc(C)c2)c1` [Example Compound 7-5, [4-(3,5-dimethylphenyl)-5-(2-methyl-4-pyridyl)-1,3-thiazol-2-yl]amine]: the melting point is 219 to 220 °C.

In the case of `Cc1cccc(N2C=C(c3cc(C)nc(C)c3)SC2N)c1` (centres unmarked) [Example Compound 7-6, [5-(2,6-dimethyl-4-pyridyl)-3-(3-methylphenyl)-1,3-thiazol-2-yl]amine], the melting point fell in the range of 214 to 216 °C.

On to `Cc1cc(C)cc(-c2nc(N)sc2-c2cc(C)nc(C)c2)c1` [Example Compound 7-7, [4-(3,5-dimethylphenyl)-5-(2,6-dimethyl-4-pyridyl)-1,3-thiazol-2-yl]amine], for which the melting point was in the range of 256 to 258 °C.

With `Cc1cc(-c2sc(N)nc2-c2ccc(F)cc2)ccn1` [Example Compound 7-8, [4-(4-fluorophenyl)-5-(2-methyl-4-pyridyl)-1,3-thiazol-2-yl]amine], the melting point lay in the range of 233 to 234 °C.

`CNc1nc(-c2cccc(C)c2)c(-c2ccnc(F)c2)s1` [Example Compound 8, N-methyl-[5-(2-fluoro-4-pyridyl)-4-(3-methylphenyl)-1,3-thiazol-2-yl]amine] yielded a melting point of 186 to 187 °C.

In turn, `CNc1nc(-c2cccc(C)c2)c(-c2ccnc(C)c2)s1` [Example Compound 9, N-methyl-[4-(3-methylphenyl)-5-(2-methyl-4-pyridyl)-1,3-thiazol-2-yl]amine] had a melting point of 164 to 165 °C.

In turn, `Cc1cccc(-c2nc(N(C)C)sc2-c2ccnc(C)c2)c1` [Example Compound 10, N,N-dimethyl-[4-(3-methylphenyl)-5-(2-methyl-4-pyridyl)-1,3-thiazol-2-yl]amine] yielded a melting point of 77 to 79 °C.

`CCc1nc(-c2cccc(Cl)c2)c(-c2ccnc(F)c2)s1` [Example Compound 12, 2-ethyl-4-(3-chlorophenyl)-5-(2-fluoro-4-pyridyl)-1,3-thiazole]: the melting point is 102 to 103 °C.

Molecule `Cc1cccc(-c2nc(-c3ccccc3Cl)sc2-c2ccnc(C)c2)c1` [Example Compound 14-1, 2-(2-chlorophenyl)-4-(3-methylphenyl)-5-(2-methyl-4-pyridyl)-1,3-thiazole] had a melting point of 83 to 84 °C.
